From patent EP0414894A1 (priority 1989, dated 1990) come the findings set out here.

In data set [1] the test system is domestic flies. The data set can be described thus: insecticidal activity, full-scale (large-scale) test in premises. The class given is in vivo. Conditions: 2% solution, 2-3 dishes per 20 m²; 72 hours. The procedure: The full-scale tests for activity of the insecticidal composition of the invention to domestic flies in habitable and industrial premises were carried out as follows. The Petri dishes containing a 2% solution of the insecticidal composition of the invention were located according 2-3-dishes per 20 m². The composition activity was evaluated by a direct estimation of killed insects in 72 hours or by using an adhesive tape to count the number of flies on its surface prior to and after conducting the test.

The subject of data set [2] is domestic flies. The data set can be described thus: insecticidal activity, laboratory test in gauze boxes. The class given is in vivo. Conditions: 2% solution in 5% aqueous glucose; observed in 48-72 hours. As to the method:
The compound obtained was used for preparing an insecticidal composition which was a 2% solution of the compound in a 5% aqueous solution of glucose. The test for activity of the insecticidal composition of the invention was conducted on domestic flies. Into gause 10x10 cm boxes /6 boxes/ 6-7-day flies were placed in the number of 50 individuals per box, which were of both sexes. The Petri dishes containing the insecticidal composition of the invention were put into 5 boxes. The observations for fly death were carried out in 48-72 hours. The Petri dish containing a 5% aqueous glucose solution were placed into a control box.

The subject of a further data set is Influenza A viruses. Description: virulicidal activity, virus titer in allantoic fluid by hemagglutination-inhibition.
The test system of another data set is Meningopneumonia virus. Also on record: species or system meningopneumonia pathogene/MP strain/.
The test system of another data set is Hepatitis B virus. The data set can be described thus: virulicidal activity, HBsAg titer in blood serum. The source says: table ratio instead of the test composition.
For a further data set, the system named is Staphylococcus aureus. Description: microbe, parasite or virus in culture. The class given is cell-based. Conditions: for killing at 0.2 %: Staphylococcus aureus, read-out: Death of micro-organisms, % S.aureus.
The next data set deals with Escherichia coli. The data set can be described thus: microbe, parasite or virus in culture. The class given is cell-based. Conditions: for killing at 0.2 %: Escherichia coli, read-out: Death of micro-organisms, % E.coli.
Where [3] appears, read: concentration 1.0 % by mass, 30 min.
The mark [4] stands for this setting: concentration 1.0 % by mass, 60 min.
The mark [5] stands for this setting: concentration 2.0 % by mass, 30 min.
[6] abbreviates: concentration 2.0 % by mass, 60 min.

Each structure is given as a SMILES string. Several values for one entry are separate records, joined by “and”; a condition that tells them apart may be missing. Identical values can stand only once. Like-named read-outs stand apart in the source and are kept apart here.

Turning to `CC(C)OP(=NC(CO)C(O)c1ccc([N+](=O)[O-])cc1)(OC(C)C)OC(C)C` (stereo not drawn) [Example 3, triisopropoxyphosphazo-1-para-nitrophenyl-1,3-propandiol], the “Death of flies, % Tests in large-scale” value in the data set with domestic flies [1] turned out to be 80.0%. In addition, the “Death of flies, % Tests in laboratory” value in the data set on domestic flies [2] came out at 82.0%.

In the case of `O=[N+]([O-])c1ccc(C(O)C(CO)N=P(OC(CCl)c2ccccc2)(OC(CCl)c2ccccc2)OC(CCl)c2ccccc2)cc1` (stereo not drawn) [Example 4, tris/2-chloro-1-phenylethoxy/phosphazo-1-para-nitrophenyl-1,3-propandiol], in the data set with domestic flies [1], the “Death of flies, % Tests in large-scale” value turned out to be 75.0%. In the data set on domestic flies [2], the “Death of flies, % Tests in laboratory” value stood at 73.4%.

For the compound `CC(C)OP(=NC(CCl)C(O)c1ccc([N+](=O)[O-])cc1)(OC(C)C)OC(C)C` (stereo not drawn) [Example 6, tri-isopropoxyphosphazo-1-para-nitrophenyl-1-chloro-3-propanol], the “Virulicidal activity (%) under exposure 30 min” value with Influenza A viruses (concentration 1.0 % by mass) was 75.0%; in the data set on Influenza A viruses (concentration 2.0 % by mass), 93.8%; with Meningopneumonia virus it was 99.0% and 100.0%; in the data set on Hepatitis B virus (concentration 1.0 % by mass), 100.0%; in the data set with Hepatitis B virus (concentration 2.0 % by mass), 100,0%. Moreover, the “Virulicidal activity (%) under exposure 60 min” value is reported as 98.0% in the data set on Influenza A viruses (concentration 1.0 % by mass); 100.0% with Influenza A viruses (concentration 2.0 % by mass); 100.0% in the data set with Meningopneumonia virus; 100.0% in the data set with Hepatitis B virus (concentration 1.0 % by mass); 100,0% with Hepatitis B virus (concentration 2.0 % by mass). The “Death of flies, % Tests in large-scale” value in the data set with domestic flies [1] was determined as 89.0%. Besides, the “Death of flies, % Tests in laboratory” value in the data set with domestic flies [2] is reported as 90.9%.

Turning to `CCCCOP(=NC(CCl)C(O)c1ccc([N+](=O)[O-])cc1)(OCCCC)OCCCC` (stereo not drawn) [Example 7, tri-n-butoxyphosphazo-1-paranitrophenyl-1-chloro-3-propanol], in the data set on domestic flies [1], the “Death of flies, % Tests in large-scale” value stood at 96.8%. The “Death of flies, % Tests in laboratory” value in the data set with domestic flies [2] turned out to be 96.0%.

As to `O=[N+]([O-])c1ccc(C(O)C(CCl)N=P(OC(CCl)c2ccccc2)(OC(CCl)c2ccccc2)OC(CCl)c2ccccc2)cc1` (stereo not drawn) [Example 8, tris/2-chlorol-phenylethoxy/-phosphazo-1-paranitrophenyl-1-chloro-3-propanol], the “Death of flies, % Tests in large-scale” value in the data set on domestic flies [1] turned out to be 84.0%. Also, the “Death of flies, % Tests in laboratory” value in the data set on domestic flies [2] is reported as 84.3%.

`CCCOP(=NC(CCl)C(Cl)c1ccc([N+](=O)[O-])cc1)(OCCC)OCCC` (stereo not drawn) [Example 11, tri-n-propoxyphosphazo-1-para-nitrophenyl-1,3-dichloropropane]: in the data set with domestic flies [1], the “Death of flies, % Tests in large-scale” value is given as 89.0%. Moreover, the “Death of flies, % Tests in laboratory” value in the data set on domestic flies [2] is listed as 89.0%.

In the case of `CC(C)OP(=NC(CCl)C(Cl)c1ccc([N+](=O)[O-])cc1)(OC(C)C)OC(C)C` (stereo not drawn) [Example 12, triisopropoxyphosphazo-1-paranitrophenyl], the “Death of flies, % Tests in large-scale” value in the data set with domestic flies [1] came to 90.0%. Also, the “Death of flies, % Tests in laboratory” value in the data set with domestic flies [2] is given as 92.0%.

Take `CCCCOP(=NC(CCl)C(Cl)c1ccc([N+](=O)[O-])cc1)(OCCCC)OCCCC` (stereo not drawn) [Example 13, tri-n-butoxyphosphazo-1-para-nitrophenyl-1,3-dichloropropane]: the “Virulicidal activity (%) under exposure 30 min” value was 50.0% with Influenza A viruses (concentration 1.0 % by mass); 93.8% in the data set on Influenza A viruses (concentration 2.0 % by mass); 75.0% and 99.0% in the data set on Meningopneumonia virus; 75.0% in the data set on Hepatitis B virus (concentration 1.0 % by mass); 100,0% in the data set on Hepatitis B virus (concentration 2.0 % by mass). For the same compound, the “Virulicidal activity (%) under exposure 60 min” value is 75.0% in the data set on Influenza A viruses (concentration 1.0 % by mass); 100.0% in the data set on Influenza A viruses (concentration 2.0 % by mass); 100.0% in the data set on Meningopneumonia virus; 100.0% in the data set on Hepatitis B virus (concentration 1.0 % by mass); 100,0% in the data set on Hepatitis B virus (concentration 2.0 % by mass). Also, in the data set on domestic flies [1], the “Death of flies, % Tests in large-scale” value was determined as 91.0%. The “Death of flies, % Tests in laboratory” value with domestic flies [2] came to 92.0%.

Regarding `O=[N+]([O-])c1ccc(C(Cl)C(CCl)N=P(OC(CCl)c2ccccc2)(OC(CCl)c2ccccc2)OC(CCl)c2ccccc2)cc1` (stereo not drawn) [Example 14, tris-/2-chloro-1-phenoxy/phosphazo-1-para-nitrophenyl-1,3-dichloropropane], the “Virulicidal activity (%) under exposure 30 min” value was 75.0% in the data set on Influenza A viruses (concentration 1.0 % by mass); 93.8% in the data set on Influenza A viruses (concentration 2.0 % by mass); 50.0% and 90.0% in the data set with Meningopneumonia virus; 100.0% with Hepatitis B virus (concentration 1.0 % by mass); 100,0% with Hepatitis B virus (concentration 2.0 % by mass). The “Virulicidal activity (%) under exposure 60 min” value with Influenza A viruses (concentration 1.0 % by mass) was 93.8%; in the data set on Influenza A viruses (concentration 2.0 % by mass), 100.0%; in the data set on Meningopneumonia virus, 75.0% and 100.0%; in the data set with Hepatitis B virus (concentration 1.0 % by mass) it was 100.0%; in the data set with Hepatitis B virus (concentration 2.0 % by mass), 100,0%. The “Death of flies, % Tests in large-scale” value in the data set on domestic flies [1] was found to be 70.0%. Also, in the data set with domestic flies [2], the “Death of flies, % Tests in laboratory” value was 71.3%.

Take `O=[N+]([O-])c1ccc(C(O)C(CO)N=P(Oc2ccccc2)(Oc2ccccc2)Oc2ccccc2)cc1` (stereo not drawn) [Example 21, triphenoxyphosphazo-1-para-nitrophenyl-1,3-propanol]: the “Virulicidal activity (%) under exposure 30 min” value is given as 87.5% with Influenza A viruses (concentration 1.0 % by mass), 50.0% in the data set with Hepatitis B virus (concentration 1.0 % by mass) and 100,0% with Hepatitis B virus (concentration 2.0 % by mass). The “Virulicidal activity (%) under exposure 60 min” value with Influenza A viruses (concentration 1.0 % by mass) was 100.0%; in the data set on Hepatitis B virus (concentration 1.0 % by mass), 87.5%; in the data set on Hepatitis B virus (concentration 2.0 % by mass), 100,0%.

As to `O=[N+]([O-])c1ccc(C(O)C(CO)N=P(Cl)(Oc2ccccc2)Oc2ccccc2)cc1` (stereo not drawn) [Example 36, diphenoxychlorophosphazo-1-nitrophenyl-1,3-dihydroxypropyl], the “Death of micro-organisms, % S.aureus” value in the data set with Staphylococcus aureus amounted to 90.0%. In addition, the “Death of micro-organisms, % E.coli” value in the data set on Escherichia coli is recorded as 100.0%. Also, in the data set on poliomyelitis virus, the “Virulicidal activity (%) to poliomyelitis virus under exposure of 30 min” value (shortened to “Virulicidal activity (%) … of 30 min”) is 50.0% and 90.0%; the “Virulicidal activity (%) to poliomyelitis virus under exposure of 60 min” value (“Virulicidal activity (%) … of 60 min” below) was 80.0% and 90.0%.

For the compound `O=[N+]([O-])c1ccc(C(O)C(CO)N=P(Cl)(Oc2ccc(Cl)cc2)Oc2ccc(Cl)cc2)cc1` (stereo not drawn) [Example 37, di-para-chlorophenoxychlorophosphazo-1-para-nitrophenyl-1,3-dihydroxyisopropyl], the “Death of micro-organisms, % S.aureus” value in the data set on Staphylococcus aureus turned out to be 100.0%. Moreover, the “Death of micro-organisms, % E.coli” value in the data set on Escherichia coli came out at 100.0%. Further, in the data set with poliomyelitis virus, the “Virulicidal activity (%) … of 30 min” value was 60.0% and 90.0%; the “Virulicidal activity (%) … of 60 min” value is 90.0% and 100.0%.

As for `O=[N+]([O-])c1ccc(C(O)C(CO)N=P(Cl)(Cl)Oc2ccc(Cl)cc2)cc1` (stereo not drawn) [Example 39, para-chlorophenoxydichlorophosphazo-1-para-nitrophenyl-1,3-dihydroxyisopropyl], the “Death of micro-organisms, % S.aureus” value in the data set on Staphylococcus aureus was found to be 100.0%. For the same compound, the “Death of micro-organisms, % E.coli” value with Escherichia coli is 100.0%. In addition, in the data set with poliomyelitis virus, the “Virulicidal activity (%) … of 30 min” value is 70.0% and 95.0%; the “Virulicidal activity (%) … of 60 min” value was 90.0% and 100.0%.

As for `Cc1ccc(OP(=NC(CO)C(O)c2ccc([N+](=O)[O-])cc2)(Oc2ccc(C)cc2)Oc2ccc(C)cc2)cc1` (stereo not drawn) [Example 40, tri-para-methylphenoxy-1-para-nitrophenyl-1,3-dihydroxyisopropyl], the figures for the killing at 0.2 % with Staphylococcus aureus and in the data set on Escherichia coli were 70% and 90%, respectively. For the same compound, the “Virulicidal activity (%) … of 30 min” value in the data set on poliomyelitis virus (setting [3]) is recorded as 50.0%; in the data set on poliomyelitis virus (setting [5]) it was 80.0%. The “Virulicidal activity (%) … of 60 min” value in the data set with poliomyelitis virus (setting [4]) turned out to be 70.0%; with poliomyelitis virus (setting [6]) it was 90.0%.

Take `O=[N+]([O-])c1ccc(C(O)C(CO)N=P(Oc2ccc(Cl)cc2)(Oc2ccc(Cl)cc2)Oc2ccc(Cl)cc2)cc1` (stereo not drawn) [Example 41, tri-para-chlorophenoxyphosphazo-1-para-nitrophenyl-1,3-dihydroxyisopropyl]: the killing at 0.2 % with Staphylococcus aureus was 90%; in the data set on Escherichia coli, 100%. Besides, the “Virulicidal activity (%) … of 30 min” value in the data set on poliomyelitis virus (setting [3]) was 50.0%; in the data set on poliomyelitis virus (setting [5]) it was 90.0%. The results for the “Virulicidal activity (%) … of 60 min” value with poliomyelitis virus (setting [4]) and with poliomyelitis virus (setting [6]) were 80.0% and 100.0%, respectively.
